Laboratory results reported in patent US9302999B2, “Substituted triazoles as herbicides” (E. I. DU PONT DE NEMOURS AND COMPANY, priority 2012, dated 2016).

Tests used:
[1] = tested on: rice (Oryza sativa); assay: Test B flooded paddy: rice; type: in vivo; settings: Flood; 125 g ai/ha; applied to paddy water at 2-leaf stage; visually evaluated after 13 to 15 days
Method in brief: (§1)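 At two leaves, seedlings received the test compound via the paddy water, pots having been flooded 3 cm over the soil surface and kept so. Greenhouse-held for 13 to 15 days, then judged by eye against controls on a scale running 0 (no effect) to 100 (complete control).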

[2] = tested on: sedge, umbrella (small-flower umbrella sedge Cyperus difformis); assay: Test B flooded paddy: sedge, umbrella; type: in vivo; settings: Flood; 125 g ai/ha; applied to paddy water at 2-leaf stage; visually evaluated after 13 to 15 days
Method in brief: as §1

[3] = tested on: winter wheat (Triticum aestivum); assay: Test C pre-/postemergence: winter wheat; type: in vivo
Method in brief: (§2)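 Visual injury scored 0–100 (100 = complete control) against untreated controls after 13–15 greenhouse days. Surfactant-containing solvent formulations applied either to soil after sowing (loam/sand) or over 1- to 4-leaf plants, 2–18 cm tall.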

[4] = tested on: galium (catchweed bedstraw, Galium aparine); assay: Test C pre-/postemergence: galium; type: in vivo
Method in brief: as §2

[5] = tested on: corn (Zea mays); assay: Test C pre-/postemergence: corn; type: in vivo
Method in brief: as §2

[6] = tested on: lambsquarters (Chenopodium album); assay: Test C pre-/postemergence: lambsquarters; type: in vivo
Method in brief: as §2

[7] = tested on: morningglory (Ipomoea coccinea); assay: Test C pre-/postemergence: morningglory; type: in vivo
Method in brief: as §2

[8] = tested on: velvetleaf (Abutilon theophrasti); assay: Test C pre-/postemergence: velvetleaf; type: in vivo
Method in brief: as §2

[9] = tested on: Barnyardgrass; assay: Test C postemergence: barnyardgrass; type: in vivo, Echinochloa crus-galli
Method in brief: (§3)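 Visual ratings of 0 (no effect) to 100 (complete control) were made against controls 13-15 days after a postemergence spray, with plants kept in a greenhouse. Plants were 2-18 cm tall (1- to 4-leaf stage) in Redi-Earth peat/vermiculite medium at treatment.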

[10] = tested on: Waterhemp; assay: Test C postemergence: waterhemp; type: in vivo; settings: 62 g ai/ha, scale 0 to 100 (0 no effect, 100 complete control)
Method in brief: as §3

[11] = tested on: Oilseed Rape; assay: Test C preemergence: oilseed rape; type: in vivo; settings: 62 g ai/ha, scale of 0 to 100, 0 is no effect, 100 is complete control
[12] = tested on: Waterhemp; assay: Test C pre-/postemergence: waterhemp; type: in vivo; settings: Postemergence, 31 g ai/ha; scale 0 to 100 (0 no effect, 100 complete control)
[13] = Postemergence, 31 g ai/ha, scale 0 to 100 (0 no effect, 100 complete control)
[14] = Postemergence, 62 g ai/ha, scale 0 to 100 (0 no effect, 100 complete control)
[15] = Postemergence, 125 g ai/ha, scale 0 to 100, 0 no effect, 100 complete control
[16] = Postemergence, 250 g ai/ha, scale 0 to 100 (0 no effect, 100 complete control)
[17] = Preemergence, 31 g ai/ha, scale 0 (no effect) to 100 (complete control)
[18] = Preemergence, 62 g ai/ha, scale of 0 to 100, 0 is no effect, 100 is complete control
[19] = Preemergence, 125 g ai/ha, scale 0 to 100, 0 no effect, 100 complete control
[20] = Preemergence, 250 g ai/ha, scale 0 to 100, 0 no effect, 100 complete control
[21] = Postemergence, 250 g ai/ha, scale 0 to 100
[22] = 31 g ai/ha, scale 0 to 100 (0 no effect, 100 complete control)
[23] = 62 g ai/ha, scale 0 to 100 (0 no effect, 100 complete control)

## CCc1nn(-c2ccc(C(F)(F)F)c(F)c2)nc1Oc1ccnc(C(F)(F)F)c1 [Compound 183]
[1]
  Plant response rating, Rice (0 to 100 scale, 0 is no effect, 100 is complete control): 45
[2]
  Plant response rating, Sedge, Umbrella (0 to 100 scale, 0 is no effect, 100 is complete control): 95
[3]; [13]
  Plant response rating, Wheat: 10
[3]; [14]
  Plant response rating, Wheat: 20
[3]; [15]
  Plant response rating, Wheat: 20
[3]; [16]
  Plant response rating, Wheat: 30
[3]; [17]
  Plant response rating, Wheat: 5
[3]; [18]
  Plant response rating, Wheat: 10
[3]; [19]
  Plant response rating, Wheat: 35
[3]; [20]
  Plant response rating, Wheat: 40
[4]; [13]
  Plant response rating, Galium: 70
[4]; [14]
  Plant response rating, Galium: 70
[4]; [15]
  Plant response rating, Galium: 90
[4]; [16]
  Plant response rating, Galium: 90
[4]; [17]
  Plant response rating, Galium: 60
[4]; [18]
  Plant response rating, Galium: 100
[4]; [19]
  Plant response rating, Galium: 100
[4]; [20]
  Plant response rating, Galium: 100
[5]; [13]
  Plant response rating, Corn: 10
[5]; [14]
  Plant response rating, Corn: 20
[5]; [21]
  Plant response rating, Corn: 30
[5]; [17]
  Plant response rating, Corn: 15
[5]; [18]
  Plant response rating, Corn: 15
[5]; [19]
  Plant response rating, Corn: 40
[5]; [20]
  Plant response rating, Corn: 40
[6]; [13]
  Plant response rating, Lambsquarters: 85
[6]; [14]
  Plant response rating, Lambsquarters: 95
[6]; [15]
  Plant response rating, Lambsquarters: 95
[6]; [16]
  Plant response rating, Lambsquarters: 98
[6]; [17]
  Plant response rating, Lambsquarters: 80
[6]; [18]
  Plant response rating, Lambsquarters: 100
[6]; [19]
  Plant response rating, Lambsquarters: 100
[6]; [20]
  Plant response rating, Lambsquarters: 100
[7]; [13]
  Plant response rating, Morningglory: 98
[7]; [14]
  Plant response rating, Morningglory: 98
[7]; [15]
  Plant response rating, Morningglory: 100
[7]; [16]
  Plant response rating, Morningglory: 100
[7]; [17]
  Plant response rating, Morningglory: 30
[7]; [18]
  Plant response rating, Morningglory: 45
[7]; [19]
  Plant response rating, Morningglory: 70
[7]; [20]
  Plant response rating, Morningglory: 95
[8]; [13]
  Plant response rating, Velvetleaf: 75
[8]; [15]
  Plant response rating, Velvetleaf: 75
[8]; [16]
  Plant response rating, Velvetleaf: 75
[8]; [17]
  Plant response rating, Velvetleaf: 45
[8]; [18]
  Plant response rating, Velvetleaf: 55
[8]; [19]
  Plant response rating, Velvetleaf: 100
[8]; [20]
  Plant response rating, Velvetleaf: 100
[9]; [22]
  Plant response rating, Barnyardgrass: 15
[9]; [23]
  Plant response rating, Barnyardgrass: 35
[9]; 250 g ai/ha, scale 0 to 100
  Plant response rating, Barnyardgrass: 85
[10]
  Plant response rating, Waterhemp: 100
[11]
  Plant response rating, Oilseed Rape: 80
[12]
  Plant response rating, Waterhemp: 85

## CCOc1nn(-c2ccc(Cl)cc2)nc1Cc1ccnc(C(F)(F)F)c1 [Compound 188]
[1]
  Plant response rating, Rice (0 to 100 scale, 0 is no effect, 100 is complete control): 50
[2]
  Plant response rating, Sedge, Umbrella (0 to 100 scale, 0 is no effect, 100 is complete control): 100
[3]; [13]
  Plant response rating, Wheat: 20
[3]; [14]
  Plant response rating, Wheat: 30
[3]; [15]
  Plant response rating, Wheat: 45
[3]; [16]
  Plant response rating, Wheat: 50
[3]; [17]
  Plant response rating, Wheat: 30
[3]; [18]
  Plant response rating, Wheat: 30
[3]; [19]
  Plant response rating, Wheat: 35
[3]; [20]
  Plant response rating, Wheat: 40
[4]; [13]
  Plant response rating, Galium: 60
[4]; [14]
  Plant response rating, Galium: 80
[4]; [15]
  Plant response rating, Galium: 85
[4]; [16]
  Plant response rating, Galium: 90
[4]; [17]
  Plant response rating, Galium: 90
[4]; [18]
  Plant response rating, Galium: 90
[4]; [19]
  Plant response rating, Galium: 95
[4]; [20]
  Plant response rating, Galium: 95
[5]; [13]
  Plant response rating, Corn: 10
[5]; [14]
  Plant response rating, Corn: 20
[5]; [15]
  Plant response rating, Corn: 20
[5]; [21]
  Plant response rating, Corn: 35
[5]; [17]
  Plant response rating, Corn: 5
[5]; [18]
  Plant response rating, Corn: 5
[5]; [19]
  Plant response rating, Corn: 10
[5]; [20]
  Plant response rating, Corn: 20
[6]; [13]
  Plant response rating, Lambsquarters: 90
[6]; [14]
  Plant response rating, Lambsquarters: 95
[6]; [15]
  Plant response rating, Lambsquarters: 98
[6]; [16]
  Plant response rating, Lambsquarters: 98
[6]; [17]
  Plant response rating, Lambsquarters: 90
[6]; [18]
  Plant response rating, Lambsquarters: 90
[6]; [19]
  Plant response rating, Lambsquarters: 98
[6]; [20]
  Plant response rating, Lambsquarters: 100
[7]; [13]
  Plant response rating, Morningglory: 70
[7]; [14]
  Plant response rating, Morningglory: 100
[7]; [15]
  Plant response rating, Morningglory: 100
[7]; [18]
  Plant response rating, Morningglory: 60
[7]; [19]
  Plant response rating, Morningglory: 85
[7]; [20]
  Plant response rating, Morningglory: 100
[8]; [13]
  Plant response rating, Velvetleaf: 50
[8]; [14]
  Plant response rating, Velvetleaf: 65
[8]; [15]
  Plant response rating, Velvetleaf: 70
[8]; [16]
  Plant response rating, Velvetleaf: 70
[8]; [17]
  Plant response rating, Velvetleaf: 45
[8]; [18]
  Plant response rating, Velvetleaf: 65
[8]; [19]
  Plant response rating, Velvetleaf: 85
[8]; [20]
  Plant response rating, Velvetleaf: 90
[9]; [22]
  Plant response rating, Barnyardgrass: 75
[9]; [23]
  Plant response rating, Barnyardgrass: 95
[9]; 250 g ai/ha, scale 0 to 100
  Plant response rating, Barnyardgrass: 100
[10]
  Plant response rating, Waterhemp: 100
[11]
  Plant response rating, Oilseed Rape: 70
[12]
  Plant response rating, Waterhemp: 70
